Measured values published in patent US9743675B2, “Antimicrobial composition” (UNIVERSITY OF SURREY, priority 2009, dated 2017).
Values joined by “and” are separate entries in the source; they are usually repeats but may differ in a detail not shown here. Equal entries are not always repeated. Where two headings read alike, the source gives them in different places.

Experiments:
Salmonella enteritidis [1] = test: micro broth dilution, coniferaldehyde and vanillin with and without DHAA (Example 9); format: cell-based; conditions: Vanilin/Coniferylaldehyde 0/5 mM; DHAA 20 mM if combined
Procedure: All stock solutions were stored at 5° C. In vitro bioassay: The MIC of the different treatments was determined using a micro broth dilution method. […] Control wells were prepared by adding 100 μL acetone. […] […] The plates were placed in a laminar flow chamber for 8 hours to evaporate the solvent. […] Where possible, colonies were counted to obtain more precise quantitative data.

Salmonella enterica [2] = test: perlite assay, survival of Salmonella enterica: vanillin with dehydro-abietic acid (Example 1); format: cell-based
Procedure: A 20 mmol solution of dehydroabietic acid in alcohol and water was also prepared.

[3] = solubility in water, concluded from water extraction of heated pine shavings; format: physicochemical
S. cerevisiae = test: inhibition zone experiment on TLC plate; format: cell-based; conditions: FIG. 8, S. cerevisiae; on its own or in combination with DHAA
Procedure: Two test solutions were prepared, i.e.: (i) vanillin in combination with DHAA, and (ii) stilbene in combination with dehydro-abietic acid (DHAA). The activity of the solutions were then tested on several different micro-organisms, as follows. A droplet of a test solution was placed on a TLC plate. The solvent was allowed to evaporate and a suspension of test micro-organisms (Gram-positive and Gram-negative bacteria) in broth was applied evenly onto the TLC plate. The plate was incubated overnight. To visualise microbial activity, the TLC plate was sprayed with tetrazolium salt solution. Microbial activity was indicated by a red-pink colour. To show the efficacy of the solutions against filamentous fungi, the inoculated TLC plates were incubated until the fungus started to sporulate. To show efficacy against yeast, after incubation, the TLC plates were pressed against a nutrient agar plate. The plate was incubated until yeast colonies were clearly visible.

S. enteritidis = test: inhibition zone experiment on TLC plate; format: cell-based; conditions: FIG. 3
Procedure: Two test solutions were prepared, i.e.: (i) vanillin in combination with DHAA, and (ii) stilbene in combination with dehydro-abietic acid (DHAA). The activity of the solutions were then tested on several different micro-organisms, as follows.
A droplet of a test solution was placed on a TLC plate. The solvent was allowed to evaporate and a suspension of test micro-organisms (Gram-positive and Gram-negative bacteria) in broth was applied evenly onto the TLC plate. The plate was incubated overnight. To visualise microbial activity, the TLC plate was sprayed with tetrazolium salt solution. Microbial activity was indicated by a red-pink colour.

Salmonella enteritidis [4] = test: perlite bio-assay with pure DHAA and vanillin (Example 7); format: cell-based; conditions: DHAA (10 μl of 20 mM) if +DA
Procedure: Also, one 20 mM stock solution of DHAA was made in acetone. Bioassay test: The test was carried out using 1.5 ml Eppendorf tubes containing 10 mg of fine perlite. Ten μl of each concentration of vanillin was dispensed into four Eppendorf tubes to obtain four replicates of each concentration. Two of these received 10 μl of DHAA. The tubes were left in laminar flow chamber for 3 h to allow evaporation of the acetone. […] To keep the perlite moist during incubation, 10 μl of sterile R.O water was dispensed into each tube. As controls, two tubes received DHAA only and two tubes received R.O water only. The tubes were incubated overnight, and bacterial survival was quantified by plating the content of each tube onto nutrient agar for the bacterial count.

Salmonella enterica [5] = tested on: Salmonella enterica
Salmonella enterica [6] = format: cell-based
Procedure: 20 mmol solutions of ursolic acid, oleonic acid and betulin in alcohol were also prepared.

For `COc1cc(/C=C/C=O)ccc1O` [Coniferyl aldehyde, coniferaldehyde], the Colony counts (Salmonella enteritidis [1]) was “TMTC”.

For `CC(C)c1ccc2c(c1)CC[C@H]1[C@](C)(C(=O)O)CCC[C@]21C` [Dehydro-Abietic acid, dehydroabietic acid], the “Average no of cfu recovered per droplet” value (Salmonella enterica [2]; DHAA 20 mmol alone, vanillin 0) was >100 cfu and the solubility in water [3] was “poorly-soluble in water”.

In the case of `COc1cc(C=O)ccc1O` [Vanillin, 4-hydroxy-3-methoxybenzaldehyde], the “Average no of cfu recovered per droplet” value (Salmonella enterica [2]; vanillin 0.001 mmol, DHAA 20 mmol if combined) is reported as >100 cfu, the “Average no of cfu recovered per droplet” value (Salmonella enterica [2]; vanillin 0.019 mmol, DHAA 20 mmol if combined) is reported as >100 cfu and the “Average no of cfu recovered per droplet” value (Salmonella enterica [2]; vanillin 0.039 mmol, DHAA 20 mmol if combined) is reported as >100 cfu. The “Average no of cfu recovered per droplet” value (Salmonella enterica [2]; vanillin 0.078 mmol, DHAA 20 mmol if combined) was >100 cfu, the “Average no of cfu recovered per droplet” value (Salmonella enterica [2]; vanillin 0.156 mmol, DHAA 20 mmol if combined) was >100 cfu and the “Average no of cfu recovered per droplet” value (Salmonella enterica [2]; vanillin 0.313 mmol, DHAA 20 mmol if combined) was >100 cfu. For the same compound, the “Average no of cfu recovered per droplet” value (Salmonella enterica [2]; vanillin 0.625 mmol, DHAA 20 mmol if combined) was >100 cfu, the “Average no of cfu recovered per droplet” value (Salmonella enterica [2]; vanillin 1.25 mmol, DHAA 20 mmol if combined) was >100 cfu and the “Average no of cfu recovered per droplet” value (Salmonella enterica [2]; vanillin 2.5 mmol, DHAA 20 mmol if combined) was >100 cfu. The “Average no of cfu recovered per droplet” value (Salmonella enterica [2]; vanillin 5 mmol, DHAA 20 mmol if combined) was >100 cfu, the “Average no of cfu recovered per droplet” value (Salmonella enterica [2]; vanillin 10 mmol, DHAA 20 mmol if combined) was >100 cfu and the “Average no of cfu recovered per droplet” value (Salmonella enterica [2]; vanillin 20 mmol, DHAA 20 mmol if combined) was >100 cfu. The “inhibitory effect on Salmonella” value (Salmonella enterica [2]; vanillin on its own, 20 mmol or less) was “no inhibitory effect”, the “concentration of vanillin at which it is effective” value (S. cerevisiae) was 5 mM and the “inhibition of S. enteritidis on TLC plate” value (S. enteritidis) was “ineffective”. For the same compound, the Salmonella enteritidis count (Salmonella enteritidis [4]; vanillin 0.313 mM) was “TMTC”, the Salmonella enteritidis count (Salmonella enteritidis [4]; vanillin 2.5 mM) was “TMTC” and the Salmonella enteritidis count (Salmonella enteritidis [4]; vanillin 5 mM) was “TMTC”. For the same compound, the Salmonella enteritidis count (Salmonella enteritidis [4]; vanillin 10 mM) was 394 CFU/tube and 500 CFU/tube, the “Average no. of cfu recovered per droplet” value (Salmonella enterica [5]; vanillin 20 mmol, citric acid 20 mmol if combined) was >100 cfu and the “Average no. of cfu recovered per droplet” value (Salmonella enterica [6]) was >100 cfu.

For `C=C(C)[C@@H]1CC[C@]2(CO)CC[C@]3(C)[C@H](CC[C@@H]4[C@@]5(C)CC[C@H](O)C(C)(C)[C@@H]5CC[C@]43C)[C@@H]12` [betulin], the “Average no. of cfu recovered per droplet” value (Salmonella enterica [6]; triterpenoid 20 mmol alone, vanillin 0) was >100 cfu.

With `O=C(O)CC(O)(CC(=O)O)C(=O)O` [citric acid] the “Average no. of cfu recovered per droplet” value (Salmonella enterica [5]; citric acid 20 mmol alone, vanillin 0) was >100 cfu.

With `CC1(C)CC[C@]2(C(=O)O)CC[C@]3(C)C(=CC[C@@H]4[C@@]5(C)CC[C@H](O)C(C)(C)[C@@H]5CC[C@]43C)[C@@H]2C1` [oleanic acid, oleanolic acid] the “Average no. of cfu recovered per droplet” value (Salmonella enterica [6]) was >100 cfu.

For `C[C@H]1[C@H](C)CC[C@]2(C(=O)O)CC[C@]3(C)C(=CC[C@@H]4[C@@]5(C)CC[C@H](O)C(C)(C)[C@@H]5CC[C@]43C)[C@H]12` [ursolic acid], the “Average no. of cfu recovered per droplet” value (Salmonella enterica [6]) was >100 cfu.
